Measured values as given in US20210196724A1, “BIARYL COMPOSITIONS AND METHODS FOR MODULATING A KINASE CASCADE” (Athenex, Inc., priority 2016, published 2021).

Experiments:
Type in all cases: cell-based
NCI-N87 cells = test: CellTiter-Glo cell viability, NCI-N87; conditions: Homo sapiens, 72 h
Description: (§1) The cell viability of 50 cancer cell lines was studied after treatment with Compound 121. Inhibition concentration values at 50% (IC50) were determined using CellTiter-Glo luminescent cell viability assay after incubation with different compound concentrations. GI50 values were determined according to the examples described above. Each cell line was treated with Compound 121, a standard chemotherapy drug as a reference control, and culture medium as a vehicle control.
(§2) All cells were cultured in media supplemented with 10-15% FBS at 37° C. in the presence of 5% CO2 and at 95% humidity. The culture medium was purchased from GIBCO or Sigma, USA. Cisplatin was chosen as the reference control and purchased from Hospira Australia Pty Ltd. The cell lines studied are presented in Table 5.
(§3) Cells were harvested during a logarithmic growth period and cell number count was determined using Count-star. Cell concentrations were adjusted to 4.44×10^4 cells/mL with respective culture medium. 90 μL of cell suspensions were added to two 96-well plates (plates A and B) with a final cell density of 4×10^3 cells/well.
(§4) 10 μL of culture medium was added to each well of plate A for TO reading. The plate was allowed to equilibrate at room temperature for approximately 30 min. 50 μL of CellTiter-Glo was added to each well and the contents were mixed for 5 min on an orbital shaker to induce cell lysis. The plate was allowed to incubate at room temperature for 20 min to stabilize luminescent signal.
(§5) 10 μM Compound 121 in media was serially diluted 3.16-fold to achieve 9 dose levels. Similarly, 100 μM reference control in media was serially diluted 3.16-fold to prepare reference control solutions. 10 μL drug solution and 10 μL of reference control was dispensed into each well in plate B.
(§6) Test plate B was incubated for 72 h in a humidified incubator at 37° C. in the presence of 5% CO2 and then subjected to CTG assay. The plate was allowed to equilibrate at room temperature for about 30 min. 50 μL of CellTiter-Glo was added to each well and the contents were mixed for 5 min on an orbital shaker to induce cell lysis. The plate was allowed to incubate at room temperature for 20 min to stabilize luminescent signal.
(§7) IC50 and GI50 values for each of the 50 cell lines are presented in Table 6 and were calculated based on the dose-response curves depicted in FIGS. 1-50. The dose-response curves were fitted using nonlinear regression model with a sigmoidal dose response. The formula for calculating survival rate was calculated by the formula:
(§8) Survival rate (%)=(LumTest article−LumMedium control)/(LumNone treated−LumMedium control)×100.

KARPAS-299 cells = test: CellTiter-Glo cell viability, KARPAS-299; conditions: Homo sapiens, 72 h
Description: as §1, §2, §3, §4, §5, §6, §7, §8

SK-MEL-28 cells = test: CellTiter-Glo cell viability, SK-MEL-28; conditions: Homo sapiens, 72 h
Description: as §1, §2, §3, §4, §5, §6, §7, §8

143B cells = test: CellTiter-Glo cell viability, 143B; conditions: Homo sapiens, 72 h
Description: as §1, §2, §3, §4, §5, §6, §7, §8

OVCAR-3 cells = test: CellTiter-Glo cell viability, OVCAR-3; conditions: Homo sapiens, 72 h
Description: as §1, §2, §3, §4, §5, §6, §7, §8

SK-OV-3 cells = test: CellTiter-Glo cell viability, SK-OV-3; conditions: Homo sapiens, 72 h
Description: as §1, §2, §3, §4, §5, §6, §7, §8

MDA-MB-453 cells = test: CellTiter-Glo cell viability, MDA-MB-453; conditions: Homo sapiens, 72 h
Description: as §1, §2, §3, §4, §5, §6, §7, §8

RPMI 8226 cells = test: CellTiter-Glo cell viability, RPMI 8226; conditions: Homo sapiens, 72 h
Description: as §1, §2, §3, §4, §5, §6, §7, §8

K-562 cells = test: CellTiter-Glo cell viability, K-562; conditions: Homo sapiens, K562, 72 h
Description: as §1, §2, §3, §4, §5, §6, §7, §8

A-172 cells = test: CellTiter-Glo cell viability, A-172; conditions: Homo sapiens, 72 h
Description: as §1, §2, §3, §4, §5, §6, §7, §8

MES-SA/DX5 cells = test: CellTiter-Glo cell viability, MES-SA/DX5; conditions: Homo sapiens, 72 h
Description: as §1, §2, §3, §4, §5, §6, §7, §8

22Rv1 cells = test: CellTiter-Glo cell viability, 22Rv1; conditions: Homo sapiens, 72 h
Description: as §1, §2, §3, §4, §5, §6, §7, §8

NCI-H1155 cells = test: CellTiter-Glo cell viability, NCI-H1155; conditions: Homo sapiens, 72 h
Description: as §1, §2, §3, §4, §5, §6, §7, §8

HL-60 cells = test: CellTiter-Glo cell viability, HL-60; conditions: Homo sapiens, 72 h
Description: as §1, §2, §3, §4, §5, §6, §7, §8

SW579 cells = test: CellTiter-Glo cell viability, SW579; conditions: 72 h
Description: as §1, §2, §3, §4, §5, §6, §7, §8

TJ905 cells = test: CellTiter-Glo cell viability, TJ905; conditions: 72 h
Description: as §1, §2, §3, §4, §5, §6, §7, §8

JEG-3 cells = test: CellTiter-Glo cell viability, JEG-3; conditions: Homo sapiens, 72 h
Description: as §1, §2, §3, §4, §5, §6, §7, §8

JHH-5 cells = test: CellTiter-Glo cell viability, JHH-5; conditions: 72 h
Description: as §1, §2, §3, §4, §5, §6, §7, §8

BT474 cells = test: CellTiter-Glo cell viability, BT474; conditions: Homo sapiens, BT-474, 72 h
Description: as §1, §2, §3, §4, §5, §6, §7, §8

A2058 cells = test: CellTiter-Glo cell viability, A2058; conditions: Homo sapiens, 72 h
Description: as §1, §2, §3, §4, §5, §6, §7, §8

AN3 CA cells = test: CellTiter-Glo cell viability, AN3 CA; conditions: Homo sapiens, 72 h
Description: as §1, §2, §3, §4, §5, §6, §7, §8

A-673 cells = test: CellTiter-Glo cell viability, A-673; conditions: Homo sapiens, A673, 72 h
Description: as §1, §2, §3, §4, §5, §6, §7, §8

[1] = top conc. 10 μM Compound 121, 100 μM cisplatin

Compound: Cc1cc(N2CCOC[C@@H]2C)ccc1-c1ccc(CC(=O)NCc2ccc(F)cc2)nc1 [Compound 121]
- GI50 (NCI-N87 cells; read-out: Absolute GI50): 4 nM
- IC50 (NCI-N87 cells; read-out: Absolute IC50): 4 nM
- inhibition at 10 µM (NCI-N87 cells; [1]): 49.6%
- GI50 (KARPAS-299 cells; read-out: Absolute GI50): 6 nM
- IC50 (KARPAS-299 cells; read-out: Absolute IC50): 6 nM
- inhibition at 10 µM (KARPAS-299 cells; [1]): 99.4%
- GI50 (SK-MEL-28 cells; read-out: Absolute GI50): 4 nM
- IC50 (SK-MEL-28 cells; read-out: Absolute IC50): > 10000 nM
- inhibition at 10 µM (SK-MEL-28 cells; [1]): 52.9%
- GI50 (143B cells; read-out: Absolute GI50): 8 nM
- IC50 (143B cells; read-out: Absolute IC50): 8 nM
- inhibition at 10 µM (143B cells; [1]): 97.8%
- GI50 (OVCAR-3 cells; read-out: Absolute GI50): 5 nM
- IC50 (OVCAR-3 cells; read-out: Absolute IC50): 6 nM
- inhibition at 10 µM (OVCAR-3 cells; [1]): 64.8%
- GI50 (SK-OV-3 cells; read-out: Absolute GI50): 4 nM
- IC50 (SK-OV-3 cells; read-out: Absolute IC50): 4 nM
- inhibition at 10 µM (SK-OV-3 cells; [1]): 66.2%
- GI50 (MDA-MB-453 cells; read-out: Absolute GI50): 4 nM
- IC50 (MDA-MB-453 cells; read-out: Absolute IC50): 4 nM
- inhibition at 10 µM (MDA-MB-453 cells; [1]): 67.5%
- GI50 (RPMI 8226 cells; read-out: Absolute GI50): 5 nM
- IC50 (RPMI 8226 cells; read-out: Absolute IC50): 6 nM
- inhibition at 10 µM (RPMI 8226 cells; [1]): 94.8%
- GI50 (K-562 cells; read-out: Absolute GI50): 6 nM
- IC50 (K-562 cells; read-out: Absolute IC50): 6 nM
- inhibition at 10 µM (K-562 cells; [1]): 98.1%
- GI50 (A-172 cells; read-out: Absolute GI50): 6 nM
- IC50 (A-172 cells; read-out: Absolute IC50): 7 nM
- inhibition at 10 µM (A-172 cells; [1]): 92.8%
- GI50 (MES-SA/DX5 cells; read-out: Absolute GI50): 7 nM
- IC50 (MES-SA/DX5 cells; read-out: Absolute IC50): 7 nM
- inhibition at 10 µM (MES-SA/DX5 cells; [1]): 97.8%
- GI50 (22Rv1 cells; read-out: Absolute GI50): 5 nM
- IC50 (22Rv1 cells; read-out: Absolute IC50): 6 nM
- inhibition at 10 µM (22Rv1 cells; [1]): 89%
- GI50 (NCI-H1155 cells; read-out: Absolute GI50): 6 nM
- IC50 (NCI-H1155 cells; read-out: Absolute IC50): 7 nM
- inhibition at 10 µM (NCI-H1155 cells; [1]): 87.3%
- GI50 (HL-60 cells; read-out: Absolute GI50): 7 nM
- IC50 (HL-60 cells; read-out: Absolute IC50): 8 nM
- inhibition at 10 µM (HL-60 cells; [1]): 99.8%
- GI50 (SW579 cells; read-out: Absolute GI50): 6 nM
- IC50 (SW579 cells; read-out: Absolute IC50): 7 nM
- inhibition at 10 µM (SW579 cells; [1]): 88.2%
- GI50 (TJ905 cells; read-out: Absolute GI50): 4 nM
- IC50 (TJ905 cells; read-out: Absolute IC50): 4 nM
- inhibition at 10 µM (TJ905 cells; [1]): 70%
- GI50 (JEG-3 cells; read-out: Absolute GI50): 8 nM
- IC50 (JEG-3 cells; read-out: Absolute IC50): 9 nM
- inhibition at 10 µM (JEG-3 cells; [1]): 86.5%
- GI50 (JHH-5 cells; read-out: Absolute GI50): 7 nM
- IC50 (JHH-5 cells; read-out: Absolute IC50): 7 nM
- inhibition at 10 µM (JHH-5 cells; [1]): 80.5%
- GI50 (BT474 cells; read-out: Absolute GI50): 12 nM
- IC50 (BT474 cells; read-out: Absolute IC50): > 10000 nM
- inhibition at 10 µM (BT474 cells; [1]): 37.9%
- GI50 (A2058 cells; read-out: Absolute GI50): 8 nM
- IC50 (A2058 cells; read-out: Absolute IC50): 8 nM
- inhibition at 10 µM (A2058 cells; [1]): 98.1%
- GI50 (AN3 CA cells; read-out: Absolute GI50): 5 nM
- IC50 (AN3 CA cells; read-out: Absolute IC50): 5 nM
- inhibition at 10 µM (AN3 CA cells; [1]): 98.6%
- GI50 (A-673 cells; read-out: Absolute GI50): 3 nM
- IC50 (A-673 cells; read-out: Absolute IC50): 4 nM
- inhibition at 10 µM (A-673 cells; [1]): 86.1%
